{
  "source": "patent EP0615756B1",
  "about": "(priority 1993, dated 1994)",
  "key": {"[1]": {"settings": "cited from earlier work"}, "Sprague-Dawley rats": {"system": "Sprague-Dawley rats", "test": "Rat cold ethanol tail-flick test", "assay_type": "in vivo", "settings": "for % Analgesic effect 10% / % Analgesic effect 20% / % Analgesic effect 50%: 25 micromole per kg, intramuscularly"}, "[2]": {"test": "Percutaneous transport study in modified Franz diffusion cells", "settings": "37 °C"}, "[3]": {"system": "New Zealand white rabbits", "test": "Paw pressure test", "assay_type": "in vivo", "settings": "Figure 20"}, "[4]": {"test": "Plasma concentration after intramuscular injection (HPLC) in the paw pressure study", "settings": "for half-life: rabbit, plasma, im"}, "[5]": {"settings": "Figure 15; between 17 and 28 hours, p<0.05"}, "[6]": {"settings": "Anesthesiology, vol.74, 53, 1991"}, "[7]": {"settings": "in sesame oil, duration in days"}},
  "note": "Structures can show the parent of a compound that is named as a salt. Where two headings read alike, the source gives them in different places.",
  "data": [
    {"smiles": "CO[C@]12CC[C@@]3(C[C@@H]1[C@](C)(O)C(C)(C)C)[C@H]1Cc4ccc(O)c5c4[C@@]3(CCN1CC1CC1)[C@H]2O5", "note": "[buprenorphine]", "values": [
      {"measurement": "dose needed to elicit the same analgesic effect", "setting": "[1]; [6]", "result": 0.3, "unit": "mg"}
    ]},
    {"smiles": "Oc1ccc2c(c1)[C@@]13CCCC[C@@]1(O)[C@@H](C2)N(CC1CCC1)CC3", "note": "[butorphanol]", "values": [
      {"measurement": "dose needed to elicit the same analgesic effect", "setting": "[1]; [6]", "result": 2, "unit": "mg"}
    ]},
    {"smiles": "CN1CC[C@]23c4c5ccc(O)c4O[C@H]2[C@@H](O)C=C[C@H]3[C@H]1C5", "note": "[morphine]", "values": [
      {"measurement": "dose needed to elicit the same analgesic effect", "setting": "[1]; in vivo", "result": 10, "unit": "mg"}
    ]},
    {"smiles": "O=C(Oc1ccc2c3c1O[C@H]1[C@@H](O)CC[C@@]4(O)[C@@H](C2)N(CC2CCC2)CC[C@]314)c1ccccc1", "note": "[nalbuphine benzoate]", "values": [
      {"measurement": "% Analgesic effect 10%", "setting": "Sprague-Dawley rats; [7]", "result": 4.0, "unit": "D"},
      {"measurement": "% Analgesic effect 20%", "setting": "Sprague-Dawley rats; [7]", "result": 4.0, "unit": "D"},
      {"measurement": "% Analgesic effect 50%", "setting": "Sprague-Dawley rats; [7]", "result": 3.5, "unit": "D"}
    ]},
    {"smiles": "CCCCCCCCCC(=O)Oc1ccc2c3c1O[C@H]1[C@@H](O)CC[C@@]4(O)[C@@H](C2)N(CC2CCC2)CC[C@]314", "note": "[nalbuphine decanoate]", "values": [
      {"measurement": "cumulative amount", "setting": "[2]; under 24 hours, 5% nalbuphine decanoate in a jel of 2% CMC Na", "result": "1.04±0.30", "unit": "µ g/cm^2"},
      {"measurement": "cumulative amount", "setting": "[2]; under 24 hours, jell containing 10% terpineol (5% nalbuphine decanoate, 2% CMC Na)", "result": "3.31±0.45", "unit": "µg/cm^2"},
      {"measurement": "cumulative amount", "setting": "[2]; under 48 hours, 5% nalbuphine decanoate in a jel of 2% CMC Na", "result": "1.67±0.38", "unit": "µg/cm^2"},
      {"measurement": "cumulative amount", "setting": "[2]; under 48 hours, jell containing 10% terpineol (5% nalbuphine decanoate, 2% CMC Na)", "result": "5.78±0.81", "unit": "µ g/cm^2"},
      {"measurement": "cumulative amount", "setting": "[2]; under 72 hours, 5% nalbuphine decanoate in a jel of 2% CMC Na", "result": "3.17±0.35", "unit": "µ g/cm^2"},
      {"measurement": "cumulative amount", "setting": "[2]; under 72 hours, jell containing 10% terpineol (5% nalbuphine decanoate, 2% CMC Na)", "result": "9.87±1.44", "unit": "µg/cm^2"},
      {"measurement": "% Analgesic effect 10%", "setting": "Sprague-Dawley rats; [7]", "result": 8.2, "unit": "D"},
      {"measurement": "% Analgesic effect 20%", "setting": "Sprague-Dawley rats; [7]", "result": 7.5, "unit": "D"},
      {"measurement": "% Analgesic effect 50%", "setting": "Sprague-Dawley rats; [7]", "result": 6.7, "unit": "D"},
      {"measurement": "10% analgesic effect", "setting": "Sprague-Dawley rats; table 2, longest duration", "result": 197, "unit": "h"},
      {"measurement": "50% analgesic effect", "setting": "Sprague-Dawley rats; table 2, longest duration", "result": 161, "unit": "h"},
      {"measurement": "analgesic effect for intramuscular injection (duration)", "setting": "[3]; 0.", "result": 18, "unit": "h"},
      {"measurement": "half-life", "setting": "[4]; […]", "result": 26, "unit": "h"},
      {"measurement": "increase of duration compared with nalbuphine hydrochloride", "setting": "[4]; rabbits, Figure 19", "result": 30, "unit": "times"}
    ]},
    {"smiles": "CCCCCCC(=O)Oc1ccc2c3c1O[C@H]1[C@@H](O)CC[C@@]4(O)[C@@H](C2)N(CC2CCC2)CC[C@]314", "note": "[nalbuphine enanthate]", "values": [
      {"measurement": "% Analgesic effect 10%", "setting": "Sprague-Dawley rats; [7]", "result": 3.6, "unit": "D"},
      {"measurement": "% Analgesic effect 20%", "setting": "Sprague-Dawley rats; [7]", "result": 3.4, "unit": "D"},
      {"measurement": "% Analgesic effect 50%", "setting": "Sprague-Dawley rats; [7]", "result": 3.0, "unit": "D"}
    ]},
    {"smiles": "Oc1ccc2c3c1O[C@H]1[C@@H](O)CC[C@@]4(O)[C@@H](C2)N(CC2CCC2)CC[C@]314", "note": "[nalbuphine hydrochloride, reference compound]", "values": [
      {"measurement": "% Analgesic effect 10%", "setting": "Sprague-Dawley rats; duration in hours", "result": 5.0, "unit": "H"},
      {"measurement": "% Analgesic effect 20%", "setting": "Sprague-Dawley rats; duration in hours", "result": 4.4, "unit": "H"},
      {"measurement": "% Analgesic effect 50%", "setting": "Sprague-Dawley rats; duration in hours", "result": 2.5, "unit": "H"},
      {"measurement": "10% analgesic effect", "setting": "Sprague-Dawley rats; rats, intramuscular injection", "result": 2.4, "unit": "h"},
      {"measurement": "20% analgesic effect", "setting": "Sprague-Dawley rats; rats, intramuscular injection", "result": 2.1, "unit": "h"},
      {"measurement": "50% analgesic effect", "setting": "Sprague-Dawley rats; rats, intramuscular injection, 25 micromole/kg", "result": 1.1, "unit": "h"},
      {"measurement": "10% analgesic effect", "setting": "Sprague-Dawley rats; table 2", "result": 12, "unit": "h"},
      {"measurement": "50% analgesic effect", "setting": "Sprague-Dawley rats; table 2", "result": 2.5, "unit": "h"},
      {"measurement": "analgesic effect for intramuscular injection (duration)", "setting": "[3]; 10 mg/kg", "result": 0.75, "unit": "h"},
      {"measurement": "half-life", "setting": "[4]", "result": 0.85, "unit": "h"}
    ]},
    {"smiles": "CC(C)(C)C(=O)Oc1ccc2c3c1O[C@H]1[C@@H](O)CC[C@@]4(O)[C@@H](C2)N(CC2CCC2)CC[C@]314", "note": "[nalbuphine pivalate]", "values": [
      {"measurement": "% Analgesic effect 10%", "setting": "Sprague-Dawley rats; [7]", "result": 3.8, "unit": "D"},
      {"measurement": "% Analgesic effect 20%", "setting": "Sprague-Dawley rats; [7]", "result": 3.6, "unit": "D"},
      {"measurement": "% Analgesic effect 50%", "setting": "Sprague-Dawley rats; [7]", "result": 3.2, "unit": "D"}
    ]},
    {"smiles": "CCC(=O)Oc1ccc2c3c1O[C@H]1[C@@H](O)CC[C@@]4(O)[C@@H](C2)N(CC2CCC2)CC[C@]314", "note": "[nalbuphine propionate]", "values": [
      {"measurement": "% Analgesic effect 10%", "setting": "Sprague-Dawley rats; duration in hours", "result": 12, "unit": "H"},
      {"measurement": "% Analgesic effect 20%", "setting": "Sprague-Dawley rats; duration in hours", "result": 11, "unit": "H"},
      {"measurement": "% Analgesic effect 50%", "setting": "Sprague-Dawley rats; duration in hours", "result": 10, "unit": "H"},
      {"measurement": "50% analgesic effect", "setting": "Sprague-Dawley rats; table 2", "result": 10, "unit": "h"}
    ]},
    {"smiles": "Oc1ccc2c3c1O[C@H]1[C@@H](O)CC[C@@]4(O)[C@@H](C2)N(CC2CCC2)CC[C@]314", "note": "[nalbuphine]", "values": [
      {"measurement": "amount of released nalbuphine free base", "setting": "[5]", "result": "less in preparations with sesame oil than with peanut oil ester and the control"}
    ]}
  ]
}
